Data taken from paper PMC6222450, “Computer-Aided Studies for Novel Arylhydantoin 1,3,5-Triazine Derivatives as 5-HT6 Serotonin Receptor Ligands with Antidepressive-Like, Anxiolytic and Antiobesity Action In Vivo” (Molecules : A Journal of Synthetic Chemistry and Natural …, 2018).
Several values for one entry are separate records, joined by “and”; a condition that tells them apart may be missing. Identical values can stand only once.

Key:
[1] = molecular target: T1, human serotonin 5-HT6R (Homo sapiens, UniProt P50406); assay: Radioligand binding assay, 5-HT6R, [3H]-LSD displacement; details: for Ki: human receptor stably expressed in HEK-293 cells, mean of at least two independent experiments, read-out: Ki 5-HT6 [3H]-LSD
T1 construct: expressed in transfected cells; host or cells: HEK-293
T1 sequence (P50406 whole entry): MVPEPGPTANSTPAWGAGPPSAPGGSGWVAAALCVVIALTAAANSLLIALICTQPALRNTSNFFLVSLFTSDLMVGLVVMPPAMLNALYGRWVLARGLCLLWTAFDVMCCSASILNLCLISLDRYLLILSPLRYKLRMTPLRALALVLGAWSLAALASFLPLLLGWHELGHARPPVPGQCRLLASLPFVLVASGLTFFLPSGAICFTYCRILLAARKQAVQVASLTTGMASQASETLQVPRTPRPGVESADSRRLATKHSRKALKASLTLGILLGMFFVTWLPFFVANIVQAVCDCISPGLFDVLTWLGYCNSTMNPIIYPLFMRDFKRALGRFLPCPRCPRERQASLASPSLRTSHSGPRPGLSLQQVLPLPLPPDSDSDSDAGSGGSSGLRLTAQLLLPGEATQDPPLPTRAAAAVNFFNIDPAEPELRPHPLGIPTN
Procedure: Five selective radioligands were employed (Table 1).
Radioligand binding assays were used to determine the affinity of the synthesized compounds for human serotonin 5-HT6R, which were stably expressed in HEK-293 cells. […] Each compound was tested in triplicate at 7 to 8 different concentrations (10^−11 to 10^−4 M). The inhibition constants (Ki) were calculated using the Cheng–Prusoff equation [40], and the results are expressed as the mean of at least two independent experiments.

[2] = molecular target: T2, dopaminergic D2LR (Homo sapiens, UniProt P14416); assay: Radioligand binding assay, D2LR, [3H]-Raclopride; details: human D2L receptor stably expressed in HEK-293 cells; read-out: Ki D2 [3H]-Raclopride
T2 construct: expressed in transfected cells; host or cells: HEK-293
T2 sequence (P14416 whole entry): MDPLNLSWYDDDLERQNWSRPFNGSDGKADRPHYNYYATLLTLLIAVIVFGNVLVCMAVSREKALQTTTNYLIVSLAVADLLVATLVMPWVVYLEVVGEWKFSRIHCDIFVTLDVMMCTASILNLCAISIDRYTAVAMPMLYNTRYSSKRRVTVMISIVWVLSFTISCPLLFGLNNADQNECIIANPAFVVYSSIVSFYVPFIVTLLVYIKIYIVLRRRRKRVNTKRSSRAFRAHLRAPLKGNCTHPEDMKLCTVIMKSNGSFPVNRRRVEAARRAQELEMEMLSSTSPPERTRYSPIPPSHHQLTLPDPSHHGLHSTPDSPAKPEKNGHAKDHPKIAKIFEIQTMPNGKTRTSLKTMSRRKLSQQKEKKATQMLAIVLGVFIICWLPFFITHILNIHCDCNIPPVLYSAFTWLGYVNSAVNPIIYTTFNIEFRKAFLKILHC

[3] = molecular target: T3, 5-HT1A (Homo sapiens, UniProt P08908); assay: Radioligand binding assay, 5-HT1A, [3H]-8-OH-DPAT; details: human receptor stably expressed in HEK-293 cells
T3 construct: expressed in transfected cells; host or cells: HEK-293
T3 sequence (P08908 1-422): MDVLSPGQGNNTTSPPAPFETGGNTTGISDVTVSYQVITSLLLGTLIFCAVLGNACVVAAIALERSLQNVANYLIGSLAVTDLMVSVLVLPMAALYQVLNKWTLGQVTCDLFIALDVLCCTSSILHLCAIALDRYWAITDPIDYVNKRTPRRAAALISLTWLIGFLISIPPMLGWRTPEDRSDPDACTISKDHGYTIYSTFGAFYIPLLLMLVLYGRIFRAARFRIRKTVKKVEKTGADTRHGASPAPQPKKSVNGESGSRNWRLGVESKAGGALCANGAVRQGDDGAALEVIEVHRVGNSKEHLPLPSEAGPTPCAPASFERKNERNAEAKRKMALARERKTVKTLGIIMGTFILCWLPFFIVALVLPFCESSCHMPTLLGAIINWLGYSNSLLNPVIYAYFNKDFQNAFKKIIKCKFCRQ

[4] = molecular target: T4, 5-HT2A (Homo sapiens, UniProt P28223); assay: Radioligand binding assay, 5-HT2A, [3H]-Ketanserin; details: human receptor stably expressed in HEK-293 cells
T4 construct: expressed in transfected cells; host or cells: HEK-293
T4 sequence (P28223 whole entry): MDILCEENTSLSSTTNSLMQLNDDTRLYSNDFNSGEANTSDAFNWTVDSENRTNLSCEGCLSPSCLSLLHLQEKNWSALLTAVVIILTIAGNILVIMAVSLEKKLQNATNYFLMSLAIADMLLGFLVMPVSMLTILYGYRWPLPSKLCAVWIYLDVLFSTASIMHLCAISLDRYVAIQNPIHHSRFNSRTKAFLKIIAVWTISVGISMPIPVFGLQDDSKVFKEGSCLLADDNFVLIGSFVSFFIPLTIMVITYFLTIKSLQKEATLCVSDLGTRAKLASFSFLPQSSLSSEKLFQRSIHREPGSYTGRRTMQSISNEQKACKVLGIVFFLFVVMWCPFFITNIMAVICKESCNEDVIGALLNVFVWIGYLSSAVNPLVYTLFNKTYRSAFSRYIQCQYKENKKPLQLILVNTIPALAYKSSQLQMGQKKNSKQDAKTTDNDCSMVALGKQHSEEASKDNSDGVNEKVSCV

[5] = molecular target: T5, 5-HT7bR (Homo sapiens, UniProt P34969); assay: Radioligand binding assay, 5-HT7bR, [3H]-5-CT; details: human 5-HT7b receptor stably expressed in HEK-293 cells; read-out: Ki 5-HT7 [3H]-5-CT
T5 construct: expressed in transfected cells; host or cells: HEK-293
T5 sequence (P34969 1-432 limits assumed): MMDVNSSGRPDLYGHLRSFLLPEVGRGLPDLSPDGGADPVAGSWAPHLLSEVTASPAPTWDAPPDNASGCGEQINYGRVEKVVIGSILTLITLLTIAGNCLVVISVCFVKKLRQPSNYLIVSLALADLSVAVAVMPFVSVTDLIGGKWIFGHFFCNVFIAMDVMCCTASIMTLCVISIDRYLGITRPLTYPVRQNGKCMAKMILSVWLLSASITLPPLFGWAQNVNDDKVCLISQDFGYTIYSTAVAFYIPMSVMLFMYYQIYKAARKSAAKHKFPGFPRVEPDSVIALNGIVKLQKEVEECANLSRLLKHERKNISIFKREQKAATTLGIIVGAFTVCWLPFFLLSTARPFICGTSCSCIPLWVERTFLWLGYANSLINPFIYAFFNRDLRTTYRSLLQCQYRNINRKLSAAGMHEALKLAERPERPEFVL

[6] = Lipophilicity by RP-TLC; assay type: physicochemical; details: RP-18 TLC, water/methanol, extrapolated to 100% water
Procedure: For comparison, the active arylmethyl-triazine compounds previously found (1–3) were also examined. Stationary phase RP-18 and mixtures of water/methanol […] as a mobile phase were employed. RM values were calculated from the RF data obtained. […] The regression coefficients (r^2) determined for all compounds were higher than 0.95. On the basis of the linear relationship between RM values and the volume fraction of methanol, values of RM0 in the systems analyzed corresponding to 100% of water were obtained by extrapolation. RM0 values received for the compounds tested ranged from 3.14 to 4.49 (Figure 6).
The mobile phases were prepared by mixing the respective amounts of water and organic modifier (methanol) in a range from 40 to 90% (v/v) in 5% increments. TLC was performed on Silica gel 60RP-18 F254 plates (7 × 10 cm) plates (Merck, Darmstadt, Germany). Methanol was used to prepare the solutions of the substances. Solutions (10 µL) of the analyzed compounds were applied to the plates as 5 mm bands, 10 mm apart and 10 mm from the lower edge and sides of the plates, by using Linomat V applicator (Camag, Basel, Switzerland). The vertical chamber (Sigma–Aldrich, St. Louis, MI, USA), 20 × 10 × 18 cm in size, was saturated with mobile phase for 20 min. Development was carried out over 9 cm from the starting line at a temperature of 20 °C. Next, the plates were dried at room temperature, and the spots were observed under ultraviolet light at 254 nm and/or 366 nm (UV lamp, Camag, Basel, Switzerland). In each case, sharp and symmetric spots without a tendency for tailing were obtained. Each experiment was run in triplicate and mean RF (retardation factor) values were calculated.
Starting from the RF values, the RM parameters were computed as described in the formula:RM = log(1/RF − 1)
The linear correlations between the RM values of the substances and the concentration of methanol in mobile phases were calculated for each compound with the Soczewiński-Wachtmeister equation [22]:RM = RM0 + aC where C is the concentration of the organic modifier (in %) in the mobile phase, a is the slope, and RM0 is the […].

[7] = Body weight of non-obese rats fed palatable diet (model of excessive eating); assay type: in vivo, rat
Description: In order to determine the anorectic activity of 6 or 26, the model of excessive eating was used. Male Wistar rats (170–190 g) were housed in a pair in plastic cages in constant temperature facilities exposed to a light-dark cycle. Water and food were available ad libitum. Two groups of 6 rats were fed with diets consisting of milk chocolate with nuts, cheese, salted peanuts, and 7% condensed milk and also had access to standard feed (Labofeed B, Morawski Manufacturer Feed, Kcynia, Poland) and water ad libitum for 3 weeks. Palatable control group (palatable diet + vehicle) received vehicle (1% Tween 80, intraperitoneally), while palatable test group (palatable diet + 6 or palatable + 26) was injected (intraperitoneally) with 6 or 26 at the dose of 5 mg/kg b.w. dissolved in 1% Tween 80 (1 mL/kg). Body weights were measured daily, immediately prior to administration of drugs.
The palatable diet contained: 100 g peanuts—614 kcal; 100 mL condensed milk—131 kcal; 100 g milk chocolate—529 kcal; 100g cheese (Greek type)—270 kcal. The standard diet contained 100 g feed—280 kcal.

[8] = Body weight of non-obese rats fed only standard diet; assay type: in vivo, rat; details: rats consuming standard feed, 5 mg/kg b.w. i.p.
Procedure: Male Wistar rats (170–190 g) were housed in a pair in plastic cages in constant temperature facilities exposed to a light-dark cycle. Control group (standard diet + vehicle) received vehicle (1% Tween 80, intraperitoneally), while the test group (standard diet + 6 or standard diet + 26) was injected (intraperitoneally) with 6 or 26 at the dose of 5 mg/kg b.w. dissolved in 1% Tween 80 (1 mL/kg). Body weights were measured daily immediately prior to administration of drugs.

[9] = tested on: HEK-293 cells; assay: Toxicity in vitro, MTS test; assay type: cell-based; details: 72 h
Procedure: The preliminary evaluation of the safety profile for the most promising 5-HT6R ligands 6 and 26 was performed in vitro with the HEK-293 eukaryotic cell line. The compounds examined were dissolved in culture growth media and incubated with cells for 72 h. Next, the MTS test was applied to determine the viability of the cells. […] The reference cytostatic drug doxorubicin (DX) at the very low concentration 1 μM was also cytotoxic.
The ATCC CRL 1573 HEK-293 cells were seeded in 96-well plates (NuncTM) at a concentration of 1 × 10^4 cells/well in 200 μL in Dulbecco’s Modified Eagle’s Medium (Gibco®) supplemented with 10% fetal bovine serum (Gibco®), and cultured at 37 °C in an atmosphere containing 5% of CO2 for 24 h to reach 60% confluence. The 10 mM stock solutions of 5-HT6R ligands 6 and 26 in DMSO were diluted into fresh growth medium and added into the microplates at the final concentrations 0.1 μM –100 μM. […] The cytostatic drug doxorubicin (Sigma-Aldrich) at the concentration 1 μM was used as a reference. After 72 h of incubation 20 μL of CellTiter 96® AQueous Non-Radioactive Cell Proliferation Assay (MTS) (Promega®) was added to each well and the cells were incubated under the same conditions for 2 h. The absorbance of the samples was measured using a microplate reader EnSpire (PerkinElmer, Waltham, MA, USA) at 490 nm. Statistical significance was analyzed by GraphPad Prism™ software v. 5.01 (GraphPad Software, La Jolla, CA, USA) using One-way ANOVA and Bonferroni’s Multiple Comparison Post Test.

With CN1CCN(c2nc(N)nc(CN3C(=O)NC(C)(c4ccc(Cl)c(Cl)c4Cl)C3=O)n2)CC1 (stereo not drawn) [Compound 23, 3-((4-Amino-6-(4-methylpiperazin-1-yl)-1,3,5-triazin-2-yl)methyl)-5-(2,3,4-trichlorophenyl)-5-methylimidazolidine-2,4-dione] the Ki [1] was < 0.2 µM and 0.195 µM, the Ki [2] was 4.74 µM and the Ki [3] was 6.03 µM. It also gave a Ki [4] of 3.43 µM, a Ki [5] of 8.9 µM and an RM0 [6] of 4.49.

In the case of CN1CCN(c2nc(N)nc(CN3C(=O)N(Cc4ccc5ccccc5c4)C(C)(C)C3=O)n2)CC1 [Compound 18], the Ki [1] is reported as < 0.2 µM and 0.182 µM, the Ki [2] is reported as 0.888 µM and the Ki [3] is reported as 5.72 µM. It also gave a Ki [4] of 1.91 µM, a Ki [5] of 1.53 µM and an RM0 [6] of 4.04.

In the case of CN1CCN(c2nc(N)nc(CN3C(=O)N(Cc4ccc(Cl)cc4)C(C)(C)C3=O)n2)CC1 [Compound 6, 1-(4-Chlorobenzyl)-3-((4-amino-6-(4-methylpiperazin-1-yl)-1,3,5-triazin-2-yl)methyl)-5,5-dimethylimidazolidine-2,4-dione], the Ki [1] is reported as < 0.2 µM and 0.127 µM, the Ki [2] is reported as 4.1 µM and the Ki [3] is reported as 23.3 µM. The Ki [5] was 3.71 µM, the “day of experiment from which groups differed significantly” value ([7]; rats fed palatable feed, 5 mg/kg b.w. i.p. daily) was 16 days and the “weight gain vs control group” value ([7]; rats fed palatable feed, 5 mg/kg b.w. i.p., 21 days) was “significantly less weight gain”. For the same molecule, the “body weight vs control animals fed standard feed” value ([7]; treated rats with access to preferential feed, 5 mg/kg b.w. i.p.) was “differed significantly”, the “effect on body weight” value [8] was “No effects on body weight” and the RM0 [6] was 3.39. For the same molecule, the “toxicity in HEK-293 cells” value ([9]; 0.1 μM–100 μM) was “low” and the “viability of HEK-293 cells” value ([9]; 100 μM, *** p < 0.001) was “statistically significant decrease of viability”.

For COc1cccc2c1C(=O)c1c(O)c3c(c(O)c1C2=O)C[C@@](O)(C(=O)CO)C[C@@H]3O[C@H]1C[C@H](N)[C@H](O)[C@H](C)O1 [doxorubicin, reference compound], the “viability of HEK-293 cells” value ([9]; 1 μM) was “cytotoxic”.

For CN1CCN(c2nc(N)nc(CN3C(=O)NC(C)(c4cccc5ccccc45)C3=O)n2)CC1 (stereo not drawn) [Compound 25, 3-((4-Amino-6-(4-methylpiperazin-1-yl)-1,3,5-triazin-2-yl)methyl)-5-methyl-5-(naphthalen-1-yl)imidazolidine-2,4-dione], the selectivity in words ([1]; 5-HT6R vs competitive GPCRs tested) was “highly selective”, the Ki [1] was < 0.2 µM and 0.121 µM and the Ki [2] was 7.81 µM. For the same molecule, the Ki [3] was 7.15 µM, the Ki [4] was 8.08 µM and the Ki [5] was 3.37 µM. The RM0 [6] was 4.16.

CN1CCN(c2nc(N)nc(CN3C(=O)NC(c4ccc(Cl)cc4)(c4ccc(Cl)cc4)C3=O)n2)CC1 [Compound 8, 3-((4-Amino-6-(4-methylpiperazin-1-yl)-1,3,5-triazin-2-yl)methyl)-5,5-bis(4-chlorophenyl)imidazolidine-2,4-dione] showed a Ki [1] of 1.06 µM, a Ki [2] of 6.85 µM and a Ki [3] of 3.05 µM. For the same molecule, the Ki [5] was 0.594 µM and the RM0 [6] was 4.46.
